Values of other authors, collected in US20070072232A1, “Identification of genetic components of drug response” (Variagenics, Inc. a Delaware corporation, priority 2000, published 2007).
Structures can show the parent of a compound that is named as a salt.

Test system: Alzheimer's disease
Conditions: per PDR

Nc1c2c(nc3ccccc13)CCCC2 [Cognex, tacrine hydrochloride]
patients showing no change or minimal worsening of their disease (patients receiving Cognex for Alzheimer's disease): about 45%
Alzheimer's patients minimally improved (patients receiving Cognex): About 58%
patients much improved (patients receiving Cognex): about 2%
